The text below walks through data of publication PMC6345774, “Kinetic and thermodynamic effects of phosphorylation on p53 binding to MDM2” (Scientific Reports, 2019).

The target in series [1] is T1, human MDM2 (residues 2–125) (Homo sapiens, UniProt Q00987).
T1 construct: human MDM2 (residues 2–125); made in house; host or cells: E. coli BL21 (DE3)
Description: Stopped-flow fluorescence kinetics of p53-peptide binding to MDM2. To be noted: 15 °C; for kon / koff: stopped-flow Trp fluorescence, 50 mM Tris-HCl pH 8.0, 250 mM NaCl, 0.5 mM TCEP, peptide 0.125 μM, ± fitting error; for kon: MDM2 1–3 μM, pseudo-first order, slope, read-out: kon 10^6; for koff: y-axis intercept of pseudo-first-order plot; for Kd: ratio of kinetic rate constants, assuming two-state binding without intermediates, read-out: Kd (koff/kon). Here is the method:
Expression and purification of human MDM2 (residues 2–125) was carried out as described[23] in BL21 (DE3) cells. […] Protein concentration was determined from the absorbance of its seven Tyr residues.
The kinetics of the MDM2/p53-peptide interaction was measured at 15 °C using an Applied Photophysics stopped-flow fluorimeter in the same buffer as that used in the equilibrium fluorescence experiments. The experimental procedure has been described previously. Association kinetics was measured under pseudo-first order conditions, by keeping the MDM2 concentration in excess of that of the peptide. […] Excitation wavelength was 280 nm with a cut-off filter of 315 nm on the emission side. The slit widths were 10 nm for excitation and emission.
At each MDM2 concentration a minimum of six traces were acquired; and the fitting in all cases for all peptides was carried out with the averaging of at least four traces. The averaged trace was always fitted to a single exponential function, which yielded, kobs. Fitting to a single exponential curve was carried out by using Kaleidagraph (Synergy Software); reported errors in kobs are from the exponential fitting. The dissociation (koff) and association (kon) rate constants were obtained from the straight line: kobs=kon×[MDM2]+koff.
Errors in both rates were from the linear fitting; the errors were always larger for koff due to the extrapolation to the y-axis intercept.

Series [2] in a line: Far-UV CD of isolated peptides in aqueous solution (helicity). The class given is physicochemical. To be noted: 5 °C, 50 mM phosphate pH 6.8; for molar ellipticity at 222 nm, [Θ]222: far-UV CD; for % Helix in water ([Θ]222): from molar ellipticity at 222 nm assuming 100% helix = −31500 deg cm^2 dmol^−1. As to the method:
Spectra were acquired on a Jasco J815 spectropolarimeter (Jasco, Japan) interfaced with a Peltier unit. The instrument was periodically calibrated with (+) 10-camphorsulphonic acid. Far-UV measurements (in aqueous or TFE solutions) were performed in 0.1-cm-pathlength quartz cells (Hellma), with a response time of 2 s, a band width of 1 nm, data were collected every 0.2 nm, and a scan velocity of 50 nm/min (or 20 nm/min). […] In all peptides, two concentrations (10 μM and 70 μM) in aqueous solutions (50 mM sodium phosphate buffer, pH 6.8 […]) were used to determine whether either the shapes or the intensities of the spectra were concentration-dependent. […] In all cases (aqueous solution or TFE titrations), the corresponding blank solutions (containing only buffer, or buffer and the corresponding amount of TFE) were subtracted from the spectra.
(§1) For the TFE titrations, a peptide concentration of 40 μM was used. The samples were prepared the day before and left overnight at 5 °C to reach equilibrium. The experiments in aqueous solution were acquired at 5 °C, in 50 mM sodium phosphate buffer, pH 6.8. Raw ellipticity was converted to molar ellipiticity, [Θ], from which the percentage of helical populations was determined. Co-solvent concentrations were indicated in percentage of volume. […] Fitting of the titration curves, obtained by observation of the molar ellipticity at 222 nm as the TFE concentration was increased, was carried out with Kaleidagraph (Synergy software).

The nature of series [3]: TFE titrations monitored by CD (helical population). Format: physicochemical. To be noted: 5 °C, 50 mM phosphate pH 6.8, peptide 40 μM; for [TFE]1/2 (midpoint of TFE titration) / m (m-value of TFE titration): CD at 222 nm, two-state fit, ± fitting error; for % Helix in water (from ΔG in TFE titrations): from ΔG = [TFE]1/2 × m, for 1% values the error was 10%. As to the method: Unlike the above programs, which make assumptions about how the ellipticity signal relates to secondary structure content, a TFE titration allows the determination of helical content derived from the free-energy change for the equilibrium between folded (in TFE) and unfolded peptide, without any such assumptions.
as §1

Series [4] concerns the target T1, human MDM2 (residues 2–125). Description: Isothermal titration calorimetry of p53-peptide binding to MDM2. To be noted: ITC, 15 °C, 50 mM Tris-HCl pH 8.0, 250 mM NaCl, 0.5 mM TCEP; for ΔH of binding / Kd: peptide titrated into MDM2; for ΔH of binding: repeated twice; for Kd: read-out: Log KA (converted). As to the method:
Protein concentration was determined from the absorbance of its seven Tyr residues.
Peptide binding to MDM2 was measured by using an Auto-iTC200 (Malvern Instruments, Malvern UK), as described[24],[37]. Data acquisition was carried out with a reference power of 10 µcal/s, initial delay of 60 s, spacing between injections of 150 s. In a typical ITC experiment, the p53 peptide was loaded into a 40 μl syringe and the protein was placed into the sample cell. The sequence of injections consisted of one 0.5 μl injection followed by 19 injections of 2 μl each. Control experiments loading peptide into buffer solution were also carried out for each peptide. Experiments were performed with freshly prepared protein solutions, at 15 °C in the same buffer used in fluorescence experiments. ITC experiments were performed at 15 °C rather than 25 °C to avoid aggregation of MDM2.
Each peak was integrated using NITPIC software. The areas of the peaks are related to the heat exchanged upon binding and/or dilution. This heat was corrected of the heat of dilution (i.e., the average heat of the injections after the equilibrium has reached the saturation). Titration with each peptide was repeated twice.
On the technique in general: In ITC the heat of successive injections is recorded.

In series [5] the target is T2, human MDM2 (residues 2–125) (human, UniProt Q00987 2-125).
T2 construct: MDM2 (murine double minute 2), human, N-terminal domain, residues 2-125; no tag is named; also called N-terminal domain of MDM2
T2 sequence (Q00987 2-125): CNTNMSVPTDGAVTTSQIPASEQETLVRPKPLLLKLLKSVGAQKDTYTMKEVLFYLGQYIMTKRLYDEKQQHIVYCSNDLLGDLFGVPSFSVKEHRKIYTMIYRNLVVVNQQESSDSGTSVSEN
As to the kind of experiment: ITC; p53 peptide in the syringe titrated into MDM2 in the cell; Auto-iTC200; 15 °C; 50 mM Tris-HCl pH 8.0, 250 mM NaCl, 0.5 mM TCEP. To be noted: both partners purified.

Series [6] deals with T2, human MDM2 (residues 2–125). Description: other fluorescence titration; peptide 0–10 μM added to 4 μM MDM2; fluorescence at 315 nm after excitation at 280 nm; 15 °C; 50 mM Tris-HCl pH 8.0, 250 mM NaCl, 0.5 mM TCEP; samples left overnight at 5 °C. To be noted: both partners purified.
The target is the same in series [7]. Description: stopped-flow fluorescence; pseudo-first order, peptide 0.125 μM final, MDM2 in excess (typically 1 μM to 3 μM); Trp23 fluorescence, excitation 280 nm, 315 nm cut-off; 15 °C; 50 mM Tris-HCl pH 8.0, 250 mM NaCl, 0.5 mM TCEP; Kd as koff/kon assuming a two-state reaction. To be noted: both partners purified.

T1 sequence (Q00987 2-125): as above

As a reminder, the kon is the second-order rate constant of association. By koff is commonly meant the rate constant with which the complex falls apart. For the molecule Ac-EEFDDLWKLLPEN-NH2 [P53-E18-D20], in series [1], the association rate constant (kon) worked out at 4e+06 ± 2e+06 M⁻¹ s⁻¹ and the koff came to 18 ± 6 s⁻¹. For the same molecule, in series [2], the “molar ellipticity at 222 nm, [Θ]222” value is given as −2100 deg cm^2 dmol^−1 and the “% Helix in water ([Θ]222)” value came out at 6.6%. Further, in series [3], the “[TFE]1/2 (midpoint of TFE titration)” value is given as 15 ± 1 % (vol:vol), the “m (m-value of TFE titration)” value was 135 ± 18 cal mol^−1(%)^−1 and the “% Helix in water (from ΔG in TFE titrations)” value stood at 3 ± 1%. In series [4], this molecule had a TΔS of binding of -2.64 kcal/mol and a ΔH of binding of -8.80 kcal/mol.
On to “Ac-EeFdDLWeeLPEN-NH2 [P53-E18-D20-E24-E25, p53 Glu17-Asn29 peptide with phosphomimetics at Thr18 and Ser20 and Lys24, Leu25 mutated to Glu]”, for which the “binding to MDM2 in stopped-flow kinetics” value in series [1] (no exponential behaviour in any trace at any MDM2 concentration tested) is “did not show any evidence of binding”. Also, in series [2], the “molar ellipticity at 222 nm, [Θ]222” value was found to be 142.7 deg cm^2 dmol^−1 and the “% Helix in water ([Θ]222)” value turned out to be 0%.
For `CC(=O)N[C@@H](CCC(=O)O)C(=O)N[C@H](C(=O)N[C@@H](Cc1ccccc1)C(=O)N[C@@H](CC(=O)O)C(=O)N[C@@H](CC(=O)O)C(=O)N[C@@H](CC(C)C)C(=O)N[C@@H](Cc1c[nH]c2ccccc12)C(=O)N[C@@H](CCCCN)C(=O)N[C@@H](CC(C)C)C(=O)N[C@@H](CC(C)C)C(=O)N1CCC[C@H]1C(=O)N[C@@H](CCC(=O)O)C(=O)N[C@@H](CC(N)=O)C(N)=O)[C@@H](C)O` [P53-D20], in series [1], the Kd was 0.7 ± 0.2 µM, the kon was 9.5e+06 ± 900000 M⁻¹ s⁻¹ and the koff is 7 ± 2 s⁻¹. Moreover, in series [2], the “molar ellipticity at 222 nm, [Θ]222” value is on record as −2811 deg cm^2 dmol^−1 and the “% Helix in water ([Θ]222)” value was 9%.
Take Ac-EEFEDLWKLLPEN-NH2 [P53-E18-E20]: in series [1], the kon was 2.7e+06 ± 900000 M⁻¹ s⁻¹ and the koff was 17 ± 2 s⁻¹. For the same molecule, in series [2], the “molar ellipticity at 222 nm, [Θ]222” value was −2757 deg cm^2 dmol^−1 and the “% Helix in water ([Θ]222)” value was determined as 8.7%. Besides, in series [3], the “[TFE]1/2 (midpoint of TFE titration)” value was 24.5 ± 0.9 % (vol:vol), the “m (m-value of TFE titration)” value is 420 ± 390 cal mol^−1(%)^−1 and the “% Helix in water (from ΔG in TFE titrations)” value worked out at 1%. Further, in series [4], the TΔS of binding is -2.16 kcal/mol, the Kd was 5.01 µM and the ΔH of binding is -9.12 kcal/mol.
For `CC(=O)N[C@@H](CCC(=O)O)C(=O)N[C@@H](CC(=O)O)C(=O)N[C@@H](Cc1ccccc1)C(=O)N[C@@H](CO)C(=O)N[C@@H](CC(=O)O)C(=O)N[C@@H](CC(C)C)C(=O)N[C@@H](Cc1c[nH]c2ccccc12)C(=O)N[C@@H](CCCCN)C(=O)N[C@@H](CC(C)C)C(=O)N[C@@H](CC(C)C)C(=O)N1CCC[C@H]1C(=O)N[C@@H](CCC(=O)O)C(=O)N[C@@H](CC(N)=O)C(N)=O` [P53-D18], in series [1], the Kd turned out to be 5 ± 3 µM, the on-rate constant (kon) came to 5e+06 ± 3e+06 M⁻¹ s⁻¹ and the koff came out at 23 ± 9 s⁻¹. Besides, in series [2], the “molar ellipticity at 222 nm, [Θ]222” value is −3313 deg cm^2 dmol^−1 and the “% Helix in water ([Θ]222)” value is given as 10.5%. In series [3], the “[TFE]1/2 (midpoint of TFE titration)” value is 12.0 ± 0.7 % (vol:vol), the “m (m-value of TFE titration)” value is 383 ± 142 cal mol^−1(%)^−1 and the “% Helix in water (from ΔG in TFE titrations)” value came to 1%. Moreover, in series [4], the TΔS of binding is -12.19 kcal/mol, the Kd was 19.1 µM and the ΔH of binding was -18.39 kcal/mol.
On to `CC(=O)N[C@@H](CCC(=O)O)C(=O)N[C@@H](CCC(=O)O)C(=O)N[C@@H](Cc1ccccc1)C(=O)N[C@@H](CO)C(=O)N[C@@H](CC(=O)O)C(=O)N[C@@H](CC(C)C)C(=O)N[C@@H](Cc1c[nH]c2ccccc12)C(=O)N[C@@H](CCCCN)C(=O)N[C@@H](CC(C)C)C(=O)N[C@@H](CC(C)C)C(=O)N1CCC[C@H]1C(=O)N[C@@H](CCC(=O)O)C(=O)N[C@@H](CC(N)=O)C(N)=O` [P53-E18], for which, in series [1], the kon was 3.8e+06 ± 700000 M⁻¹ s⁻¹ and the koff came out at 16 ± 2 s⁻¹. In series [2], the “molar ellipticity at 222 nm, [Θ]222” value is −2380 deg cm^2 dmol^−1 and the “% Helix in water ([Θ]222)” value was 7.5%. In series [3], the “[TFE]1/2 (midpoint of TFE titration)” value is 14 ± 5 % (vol:vol), the “m (m-value of TFE titration)” value was 103 ± 42 cal mol^−1(%)^−1 and the “% Helix in water (from ΔG in TFE titrations)” value is 7 ± 1%. Besides, in series [4], the TΔS of binding is -0.26 kcal/mol, the Kd was 7.08 µM and the ΔH of binding was -7.02 kcal/mol.
For the molecule Ac-ETFDDLWKLLPEN-NH2 [Ac-ETFdDLWKLLPEN-NH2 (P53-D20)], in series [5], the Kd is 5.7 µM, the “Log KA” value worked out at 5.24 and the dH is -10.2 kcal/mol. In addition, the Kd in series [6] worked out at 1.5 ± 0.4 µM.
For the molecule Ac-EEFSDLWKLLPEN-NH2 [Ac-EeFSDLWKLLPEN-NH2 (P53-E18)], the Kd in series [5] worked out at 7.1 µM; in series [7], 4.2 ± 0.9 µM; in series [6], 2.3 ± 0.6 µM. The “Log KA” value in series [5] is 5.15. The same molecule showed a dH in series [5] of -7.02 kcal/mol.
Ac-ETFEDLWKLLPEN-NH2 [Ac-ETFeDLWKLLPEN-NH2 (P53-E20)] came in with a Kd in series [7] of 0.9 ± 0.6 µM.
Consider Ac-EEFEDLWKLLPEN-NH2 [Ac-EeFeDLWKLLPEN-NH2 (P53-E18-E20)], for which, in series [5], the Kd was 5 µM, the “Log KA” value amounted to 5.3 and the dH is -9.12 kcal/mol. In addition, the Kd in series [7] was 6 ± 2 µM.
